Experimental data from the supplement of paper PMC11061612.

Experiments:
A673 (Ewing's Sarcoma) [1] = assay: combination Emax (second highest fraction inhibited in the dose matrix, 72 h); higher = more inhibition; extreme values may be limits of the assay
Method in brief: (§1)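 After 24 hours at 37°C and 5% CO2 in 1536-well plates, cells in DMEM/F12 or RPMI plus 10% FBS received two-drug dose matrices for 72 hours. Viability came from CellTiter-Glo 2.0 luminescence and was scaled as inhibition, anchored at 0 by vehicle wells and at 1 by blank wells. Combination Emax is taken as the second-highest inhibition in the matrix, and Bliss excess as the observed combination effect less EA + EB − EA·EB, with EA and EB the single-agent effects.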

[2] = test system: SW1710 (Bladder Carcinoma); assay: as above
Method in brief: as §1

[3] = test system: SNU-449 (Hepatocellular Carcinoma); assay: as above
Method in brief: as §1

KS-1 (Glioblastoma) = assay: as above
Method in brief: as §1

GAMG (Glioblastoma) = assay: Bliss excess, mean over the matrix (fraction); higher = more synergy
Method in brief: as §1

A673 (Ewing's Sarcoma) [4] = assay: as above
Method in brief: as §1

[5] = test system: YAPC (Pancreatic Carcinoma); assay: as above
Method in brief: as §1

[6] = test system: SW1710 (Bladder Carcinoma); assay: as above
Method in brief: as §1

[7] = test system: NCI-H524 (Small Cell Lung Carcinoma); assay: as above
Method in brief: as §1

[8] = test system: SNU-449 (Hepatocellular Carcinoma); assay: as above
Method in brief: as §1

[9] = test system: SNU-16 (Gastric Carcinoma); assay: as above
Method in brief: as §1

MPP-89 (Mesothelioma) = assay: as above
Method in brief: as §1
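For Bliss excess, mean over the matrix in this document: after 72 h of two-drug dosing.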

Compound	combination Emax (A673 (Ewing's Sarcoma) [1])	combination Emax [2]	combination Emax [3]	combination Emax (KS-1 (Glioblastoma))	Bliss excess (GAMG (Glioblastoma))	Bliss excess (A673 (Ewing's Sarcoma) [4])	Bliss excess [5]	Bliss excess [6]	Bliss excess [7]	Bliss excess [8]	Bliss excess [9]	Bliss excess (MPP-89 (Mesothelioma))
C=CCn1c(=O)c2cnc(Nc3ccc(N4CCN(C)CC4)cc3)nc2n1-c1cccc(C(C)(C)O)n1 [AZD1775] + CCc1c2c(nc3ccc(O)cc13)-c1cc3c(c(=O)n1C2)COC(=O)[C@]3(O)CC [SN-38] (first compound max 1 µM, partner max 0.3 µM)	0.973	0.533	0.61	0.52	0.001	-0.0188	-0.0599	0.0053	-0.0355	-0.0298	-0.0475	0.0163
CN(CCO)CC[C@H](CSc1ccccc1)Nc1ccc(S(=O)(=O)NC(=O)c2ccc(N3CCC([C@@H](O)c4ccccc4-c4ccc(Cl)cc4)CC3)cc2)cc1S(=O)(=O)C(F)(F)F [AZD4320] + CS(=O)(=O)CCNCc1ccc(-c2ccc3ncnc(Nc4ccc(OCc5cccc(F)c5)c(Cl)c4)c3c2)o1 [Lapatinib] (first compound max 1 µM, 7x7, partner max 10 µM)	0.973	0.553	0.694	0.475	0.1	0.0505	-0.0148	-0.0324	0.0798	0.021	0.0399	0.0479
Cc1c2c(nn1C)CSCc1cc(n(C)n1)CSc1cc(c3ccccc3c1)OCCCc1c(C(=O)O)n(C)c3c-2c(Cl)ccc13 [AZD5991] + CC(=O)O[C@H]1C(=O)[C@@]2(C)[C@H]([C@H](OC(=O)c3ccccc3)[C@]3(O)C[C@H](OC(=O)[C@H](O)[C@@H](NC(=O)c4ccccc4)c4ccccc4)C(C)=C1C3(C)C)[C@]1(OC(C)=O)CO[C@@H]1C[C@@H]2O [Paclitaxel] (first compound max 1 µM, 7x7, partner max 3 µM)	0.95	0.836	0.325	0.582	0.039	0.0296	0.0224	-0.0241	-0.0264	-0.0404	0.0119	-0.0347
Cc1c2c(nn1C)CSCc1cc(n(C)n1)CSc1cc(c3ccccc3c1)OCCCc1c(C(=O)O)n(C)c3c-2c(Cl)ccc13 [AZD5991] + Nc1ccn([C@@H]2O[C@H](CO)[C@@H](O)C2(F)F)c(=O)n1 [Gemcitabine] (first compound max 1 µM, 7x7, partner max 0.3 µM)	0.893	0.397	0.316	0.288	-0.0026	-0.021	-0.0165	-0.0571	-0.0212	-0.0021	0.0183	-0.0354
C[C@@H]1COCCN1c1cc(C2([S@](C)(=N)=O)CC2)nc(-c2ccnc3[nH]ccc23)n1 [AZD6738] + C1CC(C1)(C(=O)[O-])C(=O)[O-].N.N.[Pt+2] [Carboplatin] (first compound max 10 µM, 7x7, partner max 10 µM)	0.781	0.429	0.227	0.431	-0.0162	0.0216	-0.0227	-0.0642	-0.0512	-0.0341	0.0045	-0.035
C[C@@H](Nc1cc(F)cc(F)c1)c1cc(C(=O)N(C)C)cc2c(=O)cc(N3CCOCC3)oc12 [AZD8186] + C1CN(CCC1(C(=O)N[C@@H](CCO)C2=CC=C(C=C2)Cl)N)C3=NC=NC4=C3C=CN4 [AZD5363] (first compound max 10 µM, 7x7, partner max 10 µM)	0.253	0.495	0.198	0.458	-0.0849	0.0084	-0.0214	-0.0408	-0.0342	-0.0206	-0.0549	-0.0635
C[C@@H](Nc1cc(F)cc(F)c1)c1cc(C(=O)N(C)C)cc2c(=O)cc(N3CCOCC3)oc12 [AZD8186] + CC(=O)c1c(C)c2cnc(Nc3ccc(N4CCNCC4)cn3)nc2n(C2CCCC2)c1=O [Palbociclib] (first compound max 10 µM, 7x7, partner max 10 µM)	0.479	0.585	0.391	0.428	-0.0098	0.0743	-0.0101	0.0531	-0.0531	0.0373	0.0891	-0.0317
C[C@@H](Oc1cc(-c2cnn(C3CCNCC3)c2)cnc1N)c1c(Cl)ccc(F)c1Cl [Crizotinib] + CC1=C(C(=CC=C1)Cl)NC(=O)C2=CN=C(S2)NC3=CC(=NC(=N3)C)N4CCN(CC4)CCO [Dasatinib] (first compound max 10 µM, 7x7, partner max 2 µM)	0.681	0.944	0.831	0.848	0.0164	-0.0281	0.0219	0.031	-0.0264	0.0569	0.0279	0.0389
